Tested on: HCV
Test: anti-HCV activity assay in cell culture (HCV RNA by one-step quantitative RT-PCR)
Type: cell-based
Details: compound at 10 μmol/L, Huh7.5 cells infected with HCV virus particles, cultured 96 hrs, HCV RNA in cells vs virus control group; for inhibition at 10 µM: Hepatitis C virus, Huh7.5, 96 h, read-out: percent inhibition (%)
Protocol: The assay results of anti-HCV activity of the compound synthesized according to the present invention in cell culture are shown in Table 1, wherein the molecular weight is calculated by ChemBioDraw 12.0 software from the molecular structure of each compound.
100 μL Huh7.5 cells were seeded in 96-well cell culture plate to 1×10^5/mL density, cultured in an incubator at 37° C. under the condition of 5% CO2 and saturated humidity for 6 hrs. Huh7.5 cells were then infected by viral solution containing HCV virus particles, and solutions of compound of the present invention at a concentration of 10 μmol/L liquid were added respectively, cultured for further 96 hrs, and then total RNA was extracted from the cells. Amount of HCV RNA in cells was determined by one-step quantitative RT-PCR, and compared to RNA levels of the virus control group to calculate the inhibition rate of compounds on HCV.

Structure (SMILES)	inhibition at 10 µM [%]	percent inhibition (%)
Cc1ccc(N2CCN(Cc3cc(N(C)CN4CCCCC4)ccc3C#N)CC2)cc1 [VI-36, 4-((methyl)((piperidin-1-yl)-methyl)amino)-2-(4-p-methylphenylpiperazin-1-yl)methylbenzonitrile]	91	–
Cc1ccc(N2CCN(Cc3cc(N(C)CN4CCCC4)ccc3C#N)CC2)cc1 [VI-37, 4-((methyl)((pyrrolidin-1-yl)-methyl)amino)-2-(4-p-methylphenylpiperazin-1-yl)methylbenzonitrile]	87	–
CN1CCN(c2ccc(C#N)c(CN3CCC(c4ccc(C(C)(C)C)cc4)CC3)c2)CC1 [VI-38, 4-(4-methylpiperazin-1-yl)-2-(4-(4-tert-butylphenyl)piperidin-1-yl)methylbenzonitrile]	80	–
CN(C)CCN(C)c1ccc(C#N)c(CN2CCC(c3ccc(Cl)cc3)CC2)c1 [VI-39, 4-(N,N′,N′-trimethyl-1,2-ethylenediamin-1-yl)-2-(4-p-chlorophenylpiperidin-1-yl)methylbenzonitrile]	–	88
CN(C)C1CCN(c2ccc(C#N)c(CN3CCN(c4ccc(Cl)cc4)CC3)c2)C1 (centres unmarked) [VI-44, 4-((3-dimethylamino)pyrrolidin-1-yl)-2-(4-p-chlorophenylpiperazin-1-yl)methylbenzonitrile]	–	89
COc1ccc(N2CCN(Cc3cc(N(C)CCN(C)C)ccc3C#N)CC2)cc1OC [VI-45, 4-(N,N′,N′-trimethyl-1,2-ethylenediamin-1-yl)-2-(3,4-dimethoxyphenylpiperazin-1-yl)methylbenzonitrile]	–	92
COc1ccc(N2CCN(Cc3cc(NC(C)CN4CCCC4)ccc3C#N)CC2)cc1 (centres unmarked) [VI-46, 4-(1-(pyrrolidin-1-yl)propyl-2-yl)amino-2-(4-p-methoxyphenylpiperazin-1-yl)methylbenzonitrile]	–	95
CN(C)CCN(C)c1ccc(C#N)c(CN2CCN(c3ccc(OC(F)(F)F)cc3)CC2)c1 [VI-47, 4-(N,N′,N′-trimethyl-1,2-ethylenediamin-1-yl)-2-(4-trifluoromethoxyphenylpiperazin-1-yl)methylbenzonitrile]	–	93
